# Measurements as given in patent publication US7291641B2, “Derivatives of heterocycles with 5 members, their preparation and their use as medicaments” (Societe de Conseils de Recherches et d'Applications …, priority 1999, dated 2007).
# Counter-ions that a name gives are not always drawn.
row,SMILES,melting point [°C]
1,CC(C)(C)c1c[nH]c([C@H](N)Cc2c[nH]c3ccccc23)n1 (as salt: hydrochloride),230 to 232
2,NC1(c2nc(-c3ccccc3)c[nH]2)CCCCC1 (as salt: hydrochloride),202 to 204
3,CC(C)(N)c1nc(-c2ccccc2)c[nH]1 (as salt: hydrochloride),200 to 204
4,N[C@H](Cc1c[nH]c2ccccc12)c1nc(-c2ccccc2)c(-c2ccccc2)[nH]1 (as salt: hydrochloride),> 260
5,"NCc1nc(-c2ccccc2)c[nH]1 (as salt: hydrochloride) [Example 51, (4-phenyl-1H-imidazol-2-yl)methanamine]",228 to 230
6,"CCCCCCN[C@@H](Cc1c[nH]c2ccccc12)c1nc(-c2ccccc2)c[nH]1 (as salt: hydrochloride) [Example 53, N-[(1S)-2-(1H-indol-3-yl)-1-(4-phenyl-1H-imidazol-2-yl)ethyl]-1-hexanamine]",132 to 134
7,"Cn1cc(-c2ccc(-c3ccccc3)cc2)nc1CN (as salt: hydrochloride) [Example 55, (4-[1,1′-biphenyl]-4-yl-1-methyl-1H-imidazol-2-yl)methanamine]",279 to 280
8,"CC(C)C[C@H](N)c1nc(-c2ccccc2)c[nH]1 (as salt: hydrochloride) [Example 56, (1S)-3-methyl-1-(4-phenyl-1H-imidazol-2-yl)-1-butanamine]",150 to 152
9,"N[C@H](c1nc(-c2ccccc2)c[nH]1)C1CCCCC1 (as salt: hydrochloride) [Example 80, (S)-cyclohexyl(4-phenyl-1H-imidazol-2-yl)methylamine]",208 to 210
10,"c1[nH]c([C@@H](NC2CCCCC2)C2CCCCC2)nc1C1CCCCC1 (as salt: hydrochloride) [Example 82, N-[(S)-cyclohexyl(4-cyclohexyl-1H-imidazol-2-yl)methyl]-cyclohexanamine]",180 to 182
11,"c1ccc(-c2c[nH]c([C@@H](NC3CCC3)C3CCCCC3)n2)cc1 (as salt: hydrochloride) [Example 83, N-[(S)-cyclohexyl(4-phenyl-1H-imidazol-2-yl)methyl]-cyclobutanamine]",210 to 212
12,"NCc1nc(-c2ccccc2)cn1Cc1ccccc1 (as salt: hydrochloride) [Example 107, (1-benzyl-4-phenyl-1H-imidazol-2-yl)methanamine]",248 to 250
13,"N[C@H](CCc1ccccc1)c1nc(-c2ccccc2)c[nH]1 (as salt: hydrochloride) [Example 131, (1R)-3-phenyl-1-(4-phenyl-1H-imidazol-2-yl)-1-propanamine]",174 to 176
14,"N[C@H](CC1CCCCC1)c1nc(-c2ccccc2)c[nH]1 (as salt: hydrochloride) [Example 132, (1R)-2-cyclohexyl-1-(4-phenyl-1H-imidazol-2-yl)ethanamine]",196 to 198
15,"NCc1nc(-c2ccc(-c3ccccc3)cc2)c[nH]1 (as salt: hydrochloride) [Example 141, (4-[1,1′-biphenyl]4-yl-1H-imidazol-2-yl)methanamine]",240 to 242
16,"NCc1nc(-c2ccc(-c3ccccc3)cc2)cn1Cc1ccccc1 (as salt: hydrochloride) [Example 143, (1-benzyl-4-[1,1′-biphenyl]-4-yl-1H-imidazol-2-yl)methanamine]",170 to 174
17,"Cn1cc(-c2ccccc2)nc1[C@H](N)Cc1c[nH]c2ccccc12 (as salt: hydrochloride) [Example 151, (1R)-2-(1H-indol-3-yl)-1-(1-methyl-4-phenyl-1H-imidazol-2-yl)ethanamine]",206 to 210
18,N[C@H](CC1CCCCC1)c1nc(-c2ccc(-c3ccccc3)cc2)c[nH]1 (as salt: hydrochloride) [Example 154],178 to 180
19,"CNCc1nc(-c2ccc(-c3ccccc3)cc2)c[nH]1 (as salt: hydrochloride) [Example 155, (4-[1,1′-biphenyl]-4-yl-1H-imidazol-2-yl)-N-methylmethanamine]",218 to 220
20,"CNCc1nc(-c2ccccc2)c(C)[nH]1 (as salt: hydrochloride) [Example 158, N-methyl-(5-methyl-4-phenyl-1H-imidazol-2-yl)methanamine]",218 to 220
21,"NCc1nc(-c2ccccc2)c(-c2ccccc2)[nH]1 (as salt: hydrochloride) [Example 160, (4,5-diphenyl-1H-imidazol-2-yl)methanamine]",210 to 212
22,"NCCc1nc(-c2ccc(-c3ccccc3)cc2)c[nH]1 (as salt: hydrochloride) [Example 161, 2-(4-[1,1′-biphenyl]4-yl-1H-imidazol-2-yl)ethanamine]",228 to 230
23,"CNCc1nc(-c2ccccc2)c(-c2ccccc2)[nH]1 (as salt: hydrochloride) [Example 162, (4,5-diphenyl-1H-imidazol-2-yl)-N-methylmethanamine]",198 to 200
24,"N[C@H](CCc1ccccc1)c1nc(-c2ccc(-c3ccccc3)cc2)c[nH]1 (as salt: hydrochloride) [Example 166, (1R)-1-(4-[1,1′-biphenyl]-4-yl-1H-imidazol-2-yl)-3-phenyl-1-propanamine]",215 to 218
25,"c1ccc(CNCc2nc(-c3ccc(-c4ccccc4)cc3)c[nH]2)cc1 (as salt: hydrochloride) [Example 168, N-benzyl(4-[1,1′-biphenyl]4-yl-1H-imidazol-2-yl)methanamine]",> 250
26,"NCCCc1nc(-c2ccc(-c3ccccc3)cc2)c[nH]1 (as salt: hydrochloride) [Example 179, 3-(4-[1,1′-biphenyl]-4-yl-1H-imidazol-2-yl)-1-propanamine]",> 260
27,"NCCCCCCc1nc(-c2ccccc2)c[nH]1 (as salt: hydrochloride) [Example 180, 6-(4-phenyl-1H-imidazol-2-yl)hexylamine]",244 to 246

# Second part, the compound after the results:
row,melting point [°C],SMILES
1,> 250,"CC[C@H](N)c1nc(-c2ccc(-c3ccccc3)cc2)c[nH]1 (as salt: hydrochloride) [Example 196, (1S)-1-(4-[1,1′-biphenyl]-4-yl-1H-imidazol-2-yl)-1-propanamine]"
2,224 to 226,"CC[C@H](N)c1nc(-c2ccccc2)c(-c2ccccc2)[nH]1 (as salt: hydrochloride) [Example 199, (1S)-1-(4,5-diphenyl-1H-imidazol-2-yl)-1-propanamine]"
3,155.4,"CCC[C@@H](N)c1nc(-c2ccc(-c3ccccc3)cc2)c[nH]1 (as salt: hydrochloride) [Example 209, (1R)-1-(4-[1,1′-biphenyl]-4-yl-1H-imidazol-2-yl)-1-butanamine]"
4,182 to 184,"CCC[C@@H](N)c1nc(-c2ccccc2)c[nH]1 (as salt: hydrochloride) [Example 211, (1R)-1-(4-phenyl-1H-imidazol-2-yl)-1-butanamine]"
5,178 to 181,"C[C@@H](N)c1nc(-c2ccccc2)c[nH]1 (as salt: hydrochloride) [Example 219, (1R)-1-(4-phenyl-1H-imidazol-2-yl)ethanamine]"
6,222 to 223,"N[C@H](c1nc(-c2ccc(F)c(F)c2)c[nH]1)C1CCCCC1 (as salt: hydrochloride) [Example 258, (S)-cyclohexyl[4-(3,4-difluorophenyl)-1H-imidazol-2-yl]-methanamine]"
7,225 to 227,"COc1ccc(-c2c[nH]c([C@@H](N)C3CCCCC3)n2)cc1F (as salt: hydrochloride) [Example 259, (S)-cyclohexyl[4-(3-fluoro-4-methoxyphenyl)-1H-imidazol-2-yl]-methanamine]"
8,> 250,"Fc1ccc(-c2c[nH]c([C@@H](NC3CCCCC3)C3CCCCC3)n2)cc1 (as salt: hydrochloride) [Example 264, N-{(S)-cyclohexyl[4-(4-fluorophenyl)-1H-imidazol-2-yl]methyl}cyclohexanamine]"
9,180 to 182,"c1ccc(-c2c[nH]c([C@@H](NCC3CCCCC3)C3CCCCC3)n2)cc1 (as salt: hydrochloride) [Example 265, (S)-cyclohexyl-N-(cyclohexylmethyl)(4-phenyl-1H-imidazol-2-yl)methanamine]"
10,151 to 152,"c1ccc(-c2c[nH]c([C@@H](NCC3CC3)C3CCCCC3)n2)cc1 (as salt: hydrochloride) [Example 267, (S)-cyclohexyl-N-(cyclopropylmethyl)(4-phenyl-1H-imidazol-2-yl)methanamine]"
11,221.4,"Fc1ccc(-c2c[nH]c([C@@H](NCC3CC3)C3CCCCC3)n2)cc1 (as salt: hydrochloride) [Example 273, (S)-cyclohexyl-N-(cyclopropylmethyl)[4-(4-fluorophenyl)-1H-imidazol-2-yl]-methanamine]"
12,190 to 192,"c1cc(C2CCCCC2)ccc1-c1c[nH]c([C@@H](NC2CCC2)C2CCCCC2)n1 (as salt: hydrochloride) [Example 275, N-{(S)-cyclohexyl[4-(4-cyclohexylphenyl)-1H-imidazol-2-yl]methyl}cyclobutanamine]"
13,190 to 194,"Cn1cc(-c2ccc(F)cc2)nc1[C@@H](NC1CCCCC1)C1CCCCC1 (as salt: hydrochloride) [Example 279, N-{(S)-cyclohexyl[4-(4-fluorophenyl)-1-methyl-1H-imidazol-2-yl]methyl}cyclohexanamine]"
14,204 to 206,"CCN(CC)c1ccc(-c2c[nH]c([C@@H](NCC3CCCCC3)C3CCCCC3)n2)cc1 (as salt: hydrochloride) [Example 290, 4-(2-{(S)-cyclohexyl[(cyclohexylmethyl)amino]methyl}-1H-imidazol-4-yl)-N,N-diethylaniline]"
15,254.6,"CC(C)(C)c1cc(-c2c[nH]c([C@@H](NCC3CCCCC3)C3CCCCC3)n2)cc(C(C)(C)C)c1O (as salt: hydrochloride) [Example 291, 2,6-ditert-butyl-4-(2-{(S)-cyclohexyl[(cyclohexylmethyl)amino]-methyl}-1H-imidazol-4-yl)phenol]"
